The target of this test is PDE 4 enzyme. The experiment in a line: PDE 4 enzyme inhibition (SPA). The class given is biochemical. As to conditions: PDE 4 purified from human PMNs, cAMP 1 μM, 40 minutes at 30° C. From the text: Evaluation of the PDE 4 Enzyme Inhibition a) Purification of Human Polymorphonucleate Leukocytes
The polymorphonucleate leukocytes (PMNs) were isolated from peripheral blood of healthy volunteers according to what described by Boyum A., Scand. J. Immunol., 1976, 5th suppl., 9). Shortly, the isolation of the PMNs was effected by Ficoll-Paque gradient centrifugation followed by sedimentation on dextrane and the erythrocyte contamination was eliminated by hypotonic lysis. […]
b) PDE 4 Enzyme Purification
The human PMNs were re-suspended in TRIS/HCl buffer (10 mM pH 7.8) containing MgCl2 (5 mM), EGTA (4 mM), mercaptoethanol (5 mM), TRlTON-X100 (1%), pepstatin A (1 μM), PMSF (100 μM) and leupeptin (1 μM), and homogenised by Polytron. […]
The enzyme activity was evaluated with an Amersham kit based on the SPA (Scintillation Proximity Assay) technique. […] The radioactivity due to the particles was measured in a […]. The results are expressed as percent activity versus the control present in each experiment. The IC50 values were calculated over 9 equidistant concentrations in logarithmic scale using a 4-parameters logistic function by software.

Consider `COc1ccc2c(Cc3c(Cl)cncc3Cl)nn3c(C)nnc3c2c1` [Compound 2, 6-(3,5-Dichloro-pyridin-4-ylmethyl)-9-methoxy-3-methyl-[1,2,4]-triazole-[3,4-a]-phthalazine], for which the IC50 (usually the concentration that inhibits the measured activity by half) was 207 nM.

Values taken from patent US6525055B1, “Tricyclic phthalazine derivatives as phosphodiesterase 4 inhibitors” (Zambon Group S.p.A., priority 1998, dated 2003).
